Marks after values point to notes of the source that are not given here.
How the values were obtained:
S. richteri = test: Two-choice digging bioassay, head-to-head against octanoic acid; assay type: in vivo, Solenopsis richteri; details: 25.00 ppm; both S. richteri colonies; FIGS. 3 and 4
Protocol: (§1) The repellency of the two terpenoids, callicarpenal and intermedeol, against workers of red imported fire ants, Solenopsis invicta Buren, black imported fire ants, Solenopsis rickeri Forel, and a hybrid of these two species was evaluated using multiple-choice digging bioassays (Tables 9 & 10). […] Callicarpenal and intermedeol were compared with octanoic acid, a known fire ant repellant, at the 25.00 ppm level using two-choice digging bioassays (FIGS. 3 and 4).
(§2) Head-to-head comparison on repellency of callicarpenal and intermedeol against octanoic acid: The bioassay apparatus was similar as described above, except a smaller Petri dish (8.7×2.3 cm) was used and only two choices were presented: one was sand treated with callicarpenal or intermedeol and the other with octanoic acid. Two choices were opposite each other across the center of the Petri dish and each was 3.0 cm away from the center. All compounds were tested at a 25.00 ppm level. Sand preparation was similar as described above. Ants from the same colonies as above were used in this experiment. There were five replications for each pair of comparisons. A paired t-test (critical P-value=0.05) was used to compare the mean amount of sand removed between two tubes.

[1] = test system: hybrid (S. invicta×S. richteri); test: as above; assay type: in vivo; details: 25.00 ppm, FIG. 3
Protocol: as §1, §2

S. invicta = test: as above; assay type: in vivo, Solenopsis invicta; details: 25.00 ppm; both S. invicta colonies; FIGS. 3 and 4
Protocol: as §1, §2

[2] = test system: black imported fire ants, Solenopsis richteri Forel; test: Multiple-choice digging bioassay, fire ant workers; assay type: in vivo
Protocol: as §1
(§3) Ants: Two Solenopsis invicta colonies were collected in Sharkey County, Mississippi, and two Solenopsis richteri colonies were collected in Granada County, Mississippi. Two colonies of the hybrid (S. invicta×S. richteri) colony were collected in Sunflower County, Mississippi. Fire ant mounds were shoveled and placed in 19-L plastic buckets. The inside wall of the bucket was then coated with baby powder (Cumberland Swan Holdings, Inc., Smyrna, Tenn.) to prevent ant escape. Following the water-drip method developed by Bank et al. (Banks, W. A., et al., Techniques for collecting, rearing, and handling imported fire ants, USDA SEA AATS-S-21 (1981)), ants were separated and then placed in a 44.5×60.0×13.0 cm plastic tray with inside walls coated with Fluon® (Ag Fluoropolymers, Chadds Ford, Pa.). Distilled water and 15% (w/v) sucrose water solution in separated test tubes which were plugged with cotton balls were placed in the trays. Heliocoverpa zea (Boddie) and tobacco budworm, Heliothis virescens (Fabricius) pupae were used as food sources. Inside each tray were one to three 14.0×2.0 cm Petri dishes with 1.0 cm of hardener dental plaster (Castone®; Dentsply International Inc. York, Pa.) on the bottom. Also, in the center of the Petri dish was a 5.0-cm diameter brood chamber. Two 8-mm access holes were made on the wall of the petri dish above the dental plaster. The Petri dish lid was painted black (1302 Gloss Black Spray Enamel, Louisville, Ky.)to block the light. All colonies were maintained at 22-25° C.
(§4) Fire ant workers dug and removed sand from the tube through the entry hole. The differences in the amount of removed sand among treated and control tubes were used to evaluate chemical repellency. Four 2 ml centrifuge tubes were mounted under a 14.0×2.3 cm Petri dish using glue (Arrow Fastener Co., inc., Saddle Brook, N.J.). Tubes were 5.0 cm away from the center of the Petri dish and at equal distance from each other. A 3-mm diameter access hole was drilled for each centrifuge tube, which went through the bottom of the Petri dish and the cap of the tube. The inner side of the Petri dish was coated with Fluon. Three concentrations of a test compound and one control were set up in each apparatus. Six concentrations, including […], 6.25, 12.50, and 25.00 ppm, were tested in two separated bioassays for each species and hybrid; however three more concentrations of callicarpenal, 50.00, 100.00, and […], were tested for S. invicta. Sand (Premium Play Sand, Plassein International, Longview, Tex.) was first sieved through a ™35 U.S.A. standard testing sieve (Thomas Scientific, Swedesboro, N.J.) and then washed with distilled water and dried at 350° C. for 12 h. A 3 ml dichloromethane solution of callicarpenal or intermedeol was mixed with 30 g sand in an aluminum pan. The sand was stirred every 2 min to facilitate the evaporation of the solvent under a fume hood. After dichloromethane evaporated (5 minutes), 1.92 ml distilled water was added and mixed with sand. Sand in the control tube was treated only with dichloromethane. In each tube a mean (±SD) 2.78 g (±0.06 g) wet sand was added. There was no open space inside the tube. Locations of each concentration were randomized. Fifty fire ant workers were introduced into the center of the Petri Dish. The experiment was conducted at 22±0.8° C. (mean±SD) temperature and 45.4%±11.87% relative humidity. After 24 h, sand in each vial was collected, dried at 150° C. for at least 4 hour, and weighed. […]

[3] = test system: hybrid (S. invicta×S. richteri); test: Multiple-choice digging bioassay, fire ant workers; assay type: in vivo
Protocol: as §1, §3, §4

[4] = test system: red imported fire ants, Solenopsis invicta Buren; test: Multiple-choice digging bioassay, fire ant workers; assay type: in vivo
Protocol: as §1, §3, §4

With `CC1=CCC[C@@H]2[C@@](C)(CC=O)[C@H](C)CC[C@@]12C` [callicarpenal, 13,14,15,16-tetranorclerod-3-en-12-al] the “repellency compared with octanoic acid (in words)” value (S. richteri) was “significantly greater repellency than octanoic acid”, the “repellency compared with octanoic acid (in words)” value ([1]; one hybrid colony) was “significantly greater repellency than octanoic acid” and the “repellency compared with octanoic acid (in words)” value ([1]; the other hybrid colony) was “no significant difference”. The “repellency compared with octanoic acid (in words)” value (S. invicta) was “no significant difference”, the “Sand removed (SE), mean weight of sand removed by ants 24 h after release” value (shortened to “Sand removed (SE), mean weight”) ([2]; S. richteri colony 1, Exp. 7, 0.75 ppm) was 0.40 (0.16) g and the “Sand removed (SE), mean weight” value ([2]; S. richteri colony 1, Exp. 7, 1.50 ppm) was 0.28 (0.12) g. For the same compound, the “Sand removed (SE), mean weight” value ([2]; S. richteri colony 1, Exp. 7, 3.15 ppm) was 0.21 (0.13) g, the “Sand removed (SE), mean weight” value ([2]; S. richteri colony 1, Exp. 8, 6.25 ppm) was 0.10 (0.04)* g and the “Sand removed (SE), mean weight” value ([2]; S. richteri colony 1, Exp. 8, 12.50 ppm) was 0.40 (0.17)* g. The “Sand removed (SE), mean weight” value ([2]; S. richteri colony 1, Exp. 8, 25.00 ppm) was 0.08 (0.04)* g, the “Sand removed (SE), mean weight” value ([2]; S. richteri colony 2, Exp. 9, 0.75 ppm) was 0.27 (0.16) g and the “Sand removed (SE), mean weight” value ([2]; S. richteri colony 2, Exp. 9, 1.50 ppm) was 0.85 (0.22) g. The “Sand removed (SE), mean weight” value ([2]; S. richteri colony 2, Exp. 9, 3.15 ppm) was 0.17 (0.11) g, the “Sand removed (SE), mean weight” value ([2]; S. richteri colony 2, Exp. 10, 6.25 ppm) was 0.10 (0.04)* g and the “Sand removed (SE), mean weight” value ([2]; S. richteri colony 2, Exp. 10, 12.50 ppm) was 0.10 (0.04)* g. For the same compound, the “Sand removed (SE), mean weight” value ([2]; S. richteri colony 2, Exp. 10, 25.00 ppm) was 0.01 (0.002)* g, the “Sand removed (SE), mean weight” value ([3]; Hybrid colony 1, Exp. 11, 0.75 ppm) was 0.66 (0.09) g and the “Sand removed (SE), mean weight” value ([3]; Hybrid colony 1, Exp. 11, 1.50 ppm) was 0.59 (0.10) g. For the same compound, the “Sand removed (SE), mean weight” value ([3]; Hybrid colony 1, Exp. 11, 3.15 ppm) was 0.30 (0.11) g, the “Sand removed (SE), mean weight” value ([3]; Hybrid colony 1, Exp. 12, 6.25 ppm) was 0.53 (0.13)* g and the “Sand removed (SE), mean weight” value ([3]; Hybrid colony 1, Exp. 12, 12.50 ppm) was 0.26 (0.05)* g. The “Sand removed (SE), mean weight” value ([3]; Hybrid colony 1, Exp. 12, 25.00 ppm) was 0.39 (0.14)* g, the “Sand removed (SE), mean weight” value ([3]; Hybrid colony 2, Exp. 13, 0.75 ppm) was 0.53 (0.14) g and the “Sand removed (SE), mean weight” value ([3]; Hybrid colony 2, Exp. 13, 1.50 ppm) was 0.36 (0.09) g. The “Sand removed (SE), mean weight” value ([3]; Hybrid colony 2, Exp. 13, 3.15 ppm) was 0.58 (0.12) g, the “Sand removed (SE), mean weight” value ([3]; Hybrid colony 2, Exp. 14, 6.25 ppm) was 0.47 (0.09)* g and the “Sand removed (SE), mean weight” value ([3]; Hybrid colony 2, Exp. 14, 12.50 ppm) was 0.30 (0.11)* g. For the same compound, the “Sand removed (SE), mean weight” value ([3]; Hybrid colony 2, Exp. 14, 25.00 ppm) was 0.21 (0.11)* g, the “concentration at which significant repellency was shown” value ([3]; hybrid, two colonies, in sand, 24 h) was ≥ 6.25 ppm and the “Sand removed (SE), mean weight” value ([4]; S. invicta colony 1, Exp. 1, 0.75 ppm) was 0.19 (0.07) g. For the same compound, the “Sand removed (SE), mean weight” value ([4]; S. invicta colony 1, Exp. 1, 1.50 ppm) was 0.24 (0.15) g, the “Sand removed (SE), mean weight” value ([4]; S. invicta colony 1, Exp. 1, 3.15 ppm) was 0.40 (0.20) g and the “Sand removed (SE), mean weight” value ([4]; S. invicta colony 1, Exp. 2, 6.25 ppm) was 0.21 (0.12) g. The “Sand removed (SE), mean weight” value ([4]; S. invicta colony 1, Exp. 2, 12.50 ppm) was 0.48 (0.19) g, the “Sand removed (SE), mean weight” value ([4]; S. invicta colony 1, Exp. 2, 25.00 ppm) was 0.08 (0.05) g and the “Sand removed (SE), mean weight” value ([4]; S. invicta colony 1, Exp. 3, 50.00 ppm) was 0.04 (0.004)* g. For the same compound, the “Sand removed (SE), mean weight” value ([4]; S. invicta colony 1, Exp. 3, 100.00 ppm) was 0.02 (0.008)* g, the “Sand removed (SE), mean weight” value ([4]; S. invicta colony 1, Exp. 3, 150.00 ppm) was 0.03 (0.007)* g and the “Sand removed (SE), mean weight” value ([4]; S. invicta colony 2, Exp. 4, 0.75 ppm) was 0.32 (0.16) g. For the same compound, the “Sand removed (SE), mean weight” value ([4]; S. invicta colony 2, Exp. 4, 1.50 ppm) was 0.32 (0.15) g, the “Sand removed (SE), mean weight” value ([4]; S. invicta colony 2, Exp. 4, 3.15 ppm) was 0.36 (0.11) g and the “Sand removed (SE), mean weight” value ([4]; S. invicta colony 2, Exp. 5, 6.25 ppm) was 0.24 (0.21) g. The “Sand removed (SE), mean weight” value ([4]; S. invicta colony 2, Exp. 5, 12.50 ppm) was 0.45 (0.18) g, the “Sand removed (SE), mean weight” value ([4]; S. invicta colony 2, Exp. 5, 25.00 ppm) was 0.02 (0.01) g and the “Sand removed (SE), mean weight” value ([4]; S. invicta colony 2, Exp. 6, 50.00 ppm) was 0.02 (0.007)* g. For the same compound, the “Sand removed (SE), mean weight” value ([4]; S. invicta colony 2, Exp. 6, 100.00 ppm) was 0.08 (0.06)* g, the “Sand removed (SE), mean weight” value ([4]; S. invicta colony 2, Exp. 6, 150.00 ppm) was 0.07 (0.03)* g and the “concentration at which significant repellency was shown” value ([4]; S. invicta, two colonies, in sand, 24 h) was ≥ 50.00 ppm.

From US20100190849A1, “Novel Clerodanes and Methods for Repelling Arthropods” (priority 2006, published 2010)
